# Measured values published in the supplement of paper PMC10307832.
# Legend:
# Assay in all cases: relative viability (nuclei count vs DMSO), 5 days (fraction); higher = more cells survive
# NCI-H1355 = system: NCI-H1355
# In short: (§1)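 Relative viability divides the nuclei count in treated wells by that in vehicle wells. Lung cancer cell lines were seeded in 1536-well plates, dosed by pin tool the next day, and fixed and stained after 5 days in one step with final 0.05% Triton X-100, 1% formaldehyde and 1 ug/ml Hoechst. Dosing was a single drug or a fixed anchor-drug dose plus five library-drug doses (not always all listed) in √10 steps, and values are medians of duplicate plates imaged at 4×.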
# NCI-H520 = system: NCI-H520
# In short: as §1
# NCI-H1755 = system: NCI-H1755
# In short: as §1
# PC-14 = system: PC-14
# In short: as §1
# HCC-827 = system: HCC-827
# In short: as §1
# NCI-H1975 = system: NCI-H1975
# In short: as §1
# H3255 = system: H3255
# In short: as §1
# PC-3 [JPC-3] = system: PC-3 [JPC-3]
# In short: as §1
# LK-2 = system: LK-2
# In short: as §1
# RERF-LC-KJ = system: RERF-LC-KJ
# In short: as §1
# NCI-H1563 = system: NCI-H1563
# In short: as §1
# NCI-H2405 = system: NCI-H2405
# In short: as §1
# NCI-H1734 = system: NCI-H1734
# In short: as §1
# EKVX = system: EKVX
# In short: as §1
# NCI-H322M = system: NCI-H322M
# In short: as §1
# HCC-15 = system: HCC-15
# In short: as §1
# LCLC-97TM1 = system: LCLC-97TM1
# In short: as §1
# NCI-H2228 = system: NCI-H2228
# In short: as §1
# NCI-H1650 = system: NCI-H1650
# In short: as §1
# NCI-H661 = system: NCI-H661
# In short: as §1
# CAL-12T = system: CAL-12T
# In short: as §1
compound,measurement,setting,value
CCN(CC)CCCCNc1ncc2cc(-c3cc(OC)cc(OC)c3)c(NC(=O)NC(C)(C)C)nc2n1 + C[C@@H](Oc1cc(-c2cnn(C3CCNCC3)c2)cnc1N)c1c(Cl)ccc(F)c1Cl [Crizotinib] (partner 1 µM),relative viability,NCI-H1355; first compound 0.01 µM,1.17
same,relative viability,NCI-H1355; first compound 0.03162 µM,1.16
same,relative viability,NCI-H1355; first compound 0.1 µM,1.05
same,relative viability,NCI-H1355; first compound 0.3162 µM,1.11
same,relative viability,NCI-H1355; first compound 1 µM,1.06
same,relative viability,NCI-H520; first compound 0.01 µM,0.901
same,relative viability,NCI-H520; first compound 0.03162 µM,0.825
same,relative viability,NCI-H520; first compound 0.1 µM,0.86
same,relative viability,NCI-H520; first compound 0.3162 µM,0.61
same,relative viability,NCI-H520; first compound 1 µM,0.297
same,relative viability,NCI-H1755; first compound 0.01 µM,0.928
same,relative viability,NCI-H1755; first compound 0.03162 µM,0.94
same,relative viability,NCI-H1755; first compound 0.1 µM,1.17
same,relative viability,NCI-H1755; first compound 0.3162 µM,0.984
same,relative viability,NCI-H1755; first compound 1 µM,0.892
same,relative viability,PC-14; first compound 0.01 µM,0.916
same,relative viability,PC-14; first compound 0.03162 µM,0.875
same,relative viability,PC-14; first compound 0.1 µM,1.02
same,relative viability,PC-14; first compound 0.3162 µM,1.06
same,relative viability,PC-14; first compound 1 µM,0.904
same,relative viability,HCC-827; first compound 0.01 µM,0.979
same,relative viability,HCC-827; first compound 0.03162 µM,0.958
same,relative viability,HCC-827; first compound 0.1 µM,0.968
same,relative viability,HCC-827; first compound 0.3162 µM,0.966
same,relative viability,HCC-827; first compound 1 µM,0.937
same,relative viability,NCI-H1975; first compound 0.01 µM,1.35
same,relative viability,NCI-H1975; first compound 0.03162 µM,1.02
same,relative viability,NCI-H1975; first compound 0.1 µM,1.05
same,relative viability,NCI-H1975; first compound 0.3162 µM,0.94
same,relative viability,NCI-H1975; first compound 1 µM,0.82
same,relative viability,H3255; first compound 0.01 µM,0.936
same,relative viability,H3255; first compound 0.03162 µM,0.885
same,relative viability,H3255; first compound 0.1 µM,1.14
same,relative viability,H3255; first compound 0.3162 µM,1.01
same,relative viability,H3255; first compound 1 µM,0.843
same,relative viability,PC-3 [JPC-3]; first compound 0.01 µM,1
same,relative viability,PC-3 [JPC-3]; first compound 0.03162 µM,1.01
same,relative viability,PC-3 [JPC-3]; first compound 0.1 µM,1.04
same,relative viability,PC-3 [JPC-3]; first compound 0.3162 µM,1.04
same,relative viability,PC-3 [JPC-3]; first compound 1 µM,0.889
same,relative viability,LK-2; first compound 0.01 µM,0.235
same,relative viability,LK-2; first compound 0.03162 µM,0.25
same,relative viability,LK-2; first compound 0.1 µM,0.231
same,relative viability,LK-2; first compound 0.3162 µM,0.246
same,relative viability,LK-2; first compound 1 µM,0.258
same,relative viability,RERF-LC-KJ; first compound 0.01 µM,0.84
same,relative viability,RERF-LC-KJ; first compound 0.03162 µM,0.818
same,relative viability,RERF-LC-KJ; first compound 0.1 µM,1.13
same,relative viability,RERF-LC-KJ; first compound 0.3162 µM,0.916
same,relative viability,RERF-LC-KJ; first compound 1 µM,0.816
same,relative viability,NCI-H1563; first compound 0.01 µM,0.86
same,relative viability,NCI-H1563; first compound 0.03162 µM,0.836
same,relative viability,NCI-H1563; first compound 0.1 µM,0.816
same,relative viability,NCI-H1563; first compound 0.3162 µM,0.833
same,relative viability,NCI-H1563; first compound 1 µM,0.623
same,relative viability,NCI-H2405; first compound 0.01 µM,0.834
same,relative viability,NCI-H2405; first compound 0.03162 µM,0.868
same,relative viability,NCI-H2405; first compound 0.1 µM,0.893
same,relative viability,NCI-H2405; first compound 0.3162 µM,0.873
same,relative viability,NCI-H2405; first compound 1 µM,0.8
same,relative viability,NCI-H1734; first compound 0.01 µM,0.652
same,relative viability,NCI-H1734; first compound 0.03162 µM,0.647
same,relative viability,NCI-H1734; first compound 0.1 µM,0.807
same,relative viability,NCI-H1734; first compound 0.3162 µM,0.719
same,relative viability,NCI-H1734; first compound 1 µM,0.667
same,relative viability,EKVX; first compound 0.01 µM,1.21
same,relative viability,EKVX; first compound 0.03162 µM,0.924
same,relative viability,EKVX; first compound 0.1 µM,1.04
same,relative viability,EKVX; first compound 0.3162 µM,0.841
same,relative viability,EKVX; first compound 1 µM,0.664
same,relative viability,NCI-H322M; first compound 0.01 µM,0.977
same,relative viability,NCI-H322M; first compound 0.03162 µM,0.912
same,relative viability,NCI-H322M; first compound 0.1 µM,0.928
same,relative viability,NCI-H322M; first compound 0.3162 µM,1.06
same,relative viability,NCI-H322M; first compound 1 µM,0.935
same,relative viability,HCC-15; first compound 0.01 µM,0.919
same,relative viability,HCC-15; first compound 0.03162 µM,0.853
same,relative viability,HCC-15; first compound 0.1 µM,0.871
same,relative viability,HCC-15; first compound 0.3162 µM,1.25
same,relative viability,HCC-15; first compound 1 µM,0.699
same,relative viability,LCLC-97TM1; first compound 0.03162 µM,0.45
same,relative viability,LCLC-97TM1; first compound 0.1 µM,0.373
same,relative viability,LCLC-97TM1; first compound 0.3162 µM,0.396
same,relative viability,LCLC-97TM1; first compound 1 µM,0.326
same,relative viability,NCI-H2228; first compound 0.01 µM,0.408
same,relative viability,NCI-H2228; first compound 0.03162 µM,0.564
same,relative viability,NCI-H2228; first compound 0.1 µM,0.348
same,relative viability,NCI-H2228; first compound 0.3162 µM,0.358
same,relative viability,NCI-H2228; first compound 1 µM,0.243
same,relative viability,NCI-H1650; first compound 0.01 µM,1.03
same,relative viability,NCI-H1650; first compound 0.03162 µM,0.989
same,relative viability,NCI-H1650; first compound 0.1 µM,0.902
same,relative viability,NCI-H1650; first compound 0.3162 µM,1.02
same,relative viability,NCI-H1650; first compound 1 µM,0.698
same,relative viability,NCI-H661; first compound 0.03162 µM,1.03
same,relative viability,NCI-H661; first compound 0.1 µM,0.972
same,relative viability,NCI-H661; first compound 0.3162 µM,1.04
same,relative viability,NCI-H661; first compound 1 µM,1.17
same,relative viability,CAL-12T; first compound 0.01 µM,0.809
same,relative viability,CAL-12T; first compound 0.03162 µM,0.612
same,relative viability,CAL-12T; first compound 0.1 µM,0.553
same,relative viability,CAL-12T; first compound 0.3162 µM,0.666
same,relative viability,CAL-12T; first compound 1 µM,0.533
